Publication PMC9829398 (Plant Biotechnology Journal, 2022)

Assays:
HERK1‐CD = experiment: HERK1-CD kinase activity (autophosphorylation); format: biochemical, Arabidopsis thaliana; conditions: 5 μM
Ralstonia solanacearum = format: in vivo; conditions: Arabidopsis seedlings pretreated with 5 μM, 4 days after inoculation
Meloidogyne incognita = experiment: Established rice root-knot nematode disease (inhibitor applied after inoculation); format: in vivo; conditions: irrigated three days after inoculation
PEPR1 = experiment: PEPR1-CD kinase activity; format: biochemical, Arabidopsis
From the text: Fig. S10. […] (a) Effects of FER inhibitors on the kinase activity of the Arabidopsis receptor kinase PEPR1 and CERK1 cytoplasmic domains (CDs). […] AT1G73080. […] AT3G21630. DMSO (0.05%; v/v) was used as a negative control. The data are shown as the means ± SDs (n = 4). The assay was repeated three times with similar results. ***, […]) Protein purification of PEPR1-CD and CERK1-CD. […] In (c and d), the data are presented as the means ± SDs of three biological replicates.

PER5 = conditions: 5 μM for 24 h, confocal microscopy
FER‐CD = FER‐CD (Arabidopsis thaliana, UniProt Q9SCZ4); experiment: biochemical
[1] = test system: ROS in Col‐0 and fer‐4 roots; experiment: ROS detection in plant roots (H2DCF-DA fluorescence); conditions: 5 μM for 15 min, vs DMSO and lapatinib

Sequence of FER‐CD (Q9SCZ4 469-895): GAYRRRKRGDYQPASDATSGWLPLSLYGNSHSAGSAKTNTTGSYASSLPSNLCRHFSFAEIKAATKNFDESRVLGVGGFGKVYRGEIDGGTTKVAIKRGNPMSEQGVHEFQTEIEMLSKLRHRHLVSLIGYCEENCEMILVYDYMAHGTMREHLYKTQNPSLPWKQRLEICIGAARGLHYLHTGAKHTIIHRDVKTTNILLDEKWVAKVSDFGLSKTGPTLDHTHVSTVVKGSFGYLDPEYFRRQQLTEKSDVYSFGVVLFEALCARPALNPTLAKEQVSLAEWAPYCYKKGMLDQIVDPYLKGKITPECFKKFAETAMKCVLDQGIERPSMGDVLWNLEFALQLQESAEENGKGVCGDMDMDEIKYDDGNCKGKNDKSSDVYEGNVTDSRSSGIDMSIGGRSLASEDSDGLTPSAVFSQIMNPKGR

SMILES | Inhibition rate of HERK1-CD kinase activity (HERK1‐CD) | Cotyledon bleaching caused by R. solanacearum (Ralstonia solanacearum) | Effect on established rice root-knot nematode disease (Meloidogyne incognita) | Effect on PEPR1 kinase activity (PEPR1) | Expression of PER5 in roots (PER5) | Kd (FER‐CD) [nM] | Production of ROS in Col-0 roots [1]
O=C(O)c1cc(N(Cc2ccccc2O)Cc2cc(O)ccc2O)ccc1O [Lavendustin A] | lower than 55% | effectively prevented the cotyledon bleaching | could not completely prevent the occurrence of the diseases or cure already diseased plants | did not affect the kinase activity | did not affect the expression levels | 2690 | significantly increased the production of ROS
c1nc2nc(Nc3ccc(N4CCOCC4)cc3)nc(NC3CCCCC3)c2[nH]1 [Reversine] | lower than 55% | effectively prevented the cotyledon bleaching | could not completely prevent the occurrence of the diseases or cure already diseased plants | did not affect the kinase activity | did not affect the expression levels | 1770 | significantly increased the production of ROS
